Patent US11427807B2, “Serum-free medium containing PDGF for DS cells” (Shiseido Company, Ltd., priority 2013, dated 2022)

Tested on: dermal sheath (DS) cells
Test: Growth of DS cells using serum-free medium
Format: cell-based, human
Conditions: culturing in serum-free medium containing added PDGF
Experimental: A 12-well plate (BD) was coated with CELLStart™ (Life Technologies), and cryopreserved DS cells (from person scalp, DSC, passage number: 0) were suspended in 1 ml of serum-free medium and seeded on the plate at 4×10^4 cells per well. The serum-free media used were 1) HFDM-1(−) medium (Cell Science & Technology Institute), 2) HFDM-1(+) medium (Cell Science & Technology Institute), 3) PDGF-AA (10 ng/ml)-dissolved HFDM-1(−) medium and 4) PDGF-BB (10 ng/ml)-dissolved HFDM-1(−) medium. Culturing was conducted at 37° C. in the presence of 5% carbon dioxide gas. The cells were observed under microscopy on days 2, 5 and 10 (FIG. 1: 40×), and the number of cells per visual field was counted (FIG. 2).
A 12-well plate (BD) was coated with CELLStart™ (Life Technologies), and cryopreserved DS cells (from person scalp, DSC, passage number: 0) were suspended in 1 ml of serum-free medium and seeded on the plate at 4×10^4 cells per well. The serum-free media used were 1) StemProSFM CTS (sup+, Life Technologies), 2) PDGF-BB (10 ng/ml)-dissolved StemProSFM CTS (sup+, Life Technologies) and 3) Mosaic hMSC SF Culture Medium (sup+, BD) and 4) PDGF-BB (10 ng/ml)-dissolved Mosaic hMSC SF Culture Medium (sup+, BD). […] The cells were observed under microscopy on days 2 and 7 (FIG. 3: 40×), and the number of cells per visual field was counted (FIG. 4). […]

## PDGF
  growth of DS cells (number of cells per visual field): significantly grow DS cells
